Test results taken from patent US20200291100A1, “TREATMENT OF AGE-RELATED AND MITOCHONDRIAL DISEASES BY INHIBITION OF HIF-1 ALPHA FUNCTION” (President and Fellows of Harvard College, priority 2012, published 2020).

How the values were obtained:
[1] = system: PGC-1α/β knockout myotubes; experiment: HIF stabilizing compounds in PGC-1α/β knockout myotubes with or without SIRT1 overexpression; type: cell-based, mouse
Procedure: Next whether the ability of SIRT1 to regulate mitochondrial function independently of PGC-1α/β is mediated by HIF-1α was tested. […] Furthermore, cells expressing a mutant allele of HIF-1α that is constitutively stabilized due to the replacement of the two hydroxylated prolines with alanines (DPA) (FIG. 7A), caused genome asynchrony similar to hypoxia and treatment with DMOG (FIG. 7B).
Primary myoblasts cells were isolated from WT, SIRT1 KO (Price et al., 2012) and PGC-1α/β KO (Zechner et al., 2010) mice as previously described (Price et al., 2012). WT and PGC-1α/β KO primary myoblasts were plated and allowed to differentiate into myotubes by replacing the media with low glucose DMEM supplemented with 2% horse serum (Sigma-Aldrich) for 4 days. After the differentiation the cells were infected with empty vector or flag-SIRT1 adenovirus as described before (Gerhart-Hines et al., 2007). Media was replaced with fresh DMEM supplemented with 2% horse serum (Sigma-Aldrich) for an additional 48 hr and, after that the cells were harvested for the different assays as described. To investigate the role of HIF-1α in genome asynchrony, PGC-1α/β KO primary myotubes were treated for 12 hours with 1 mM DMOG (Sigma) or 10 μM DFO (Sigma), 24 h after infection with empty vector of flag-SIRT1 adenovirus or after 12 h treatment with […] NMN (Sigma).
RNA from skeletal muscle tissue and C2C12 cells were extracted with RNeasy mini kit (Qiagen) according to the instructions and quantified using the NanoDrop 1000 spectrophotometer (Thermo Scientific). cDNA was synthesized with the iSCRIP cDNA synthesis kit (BioRad) using 600 ng of RNA. Quantitative RT-PCR reactions were performed using 1 μM of primers and LightCycler® 480 SYBR Green Master (Roche) on an LightCycler® 480 detection system (Roche). Calculations were performed by a comparative method (2-ΔCT) using 18S as an internal control. For mtDNA analysis, total DNA was extracted with DNeasy blood and tissue kit (Qiagen). mtDNA was amplified using primers specific for the mitochondrial cytochrome c oxidase subunit 2 (COX2) gene and normalized to genomic DNA by amplification of the ribosomal protein s18 (rps18) nuclear gene. […]
Protein extracts from tissue or C2C12 cells were obtained by lysis in ice-cold lysis buffer (150 mM NaCl, 10 mM Tris HCl (pH 7.4), 1 mM EDTA, 1 mM EGTA, 1% Triton X-100, 0.5% NP-40) supplemented with a cocktail of protease and phosphatase inhibitors (Roche). Protein content was determined by the Bradford protein assay (Biorad), and 50 μg proteins were run on SDS-PAGE under reducing conditions. […] The immunostaining was detected using horseradish peroxidase-conjugated anti-rabbit or anti-mouse immunoglobulin for 1 h at room temperature.

[2] = system: primary myoblasts; experiment: NMN in primary myoblasts with NMNAT1 knockdown, qPCR of mitochondrial-encoded genes; type: cell-based, mouse; conditions: cells with knockdown of NMNAT1 versus nontargeting shRNA
Source text: FIGS. 17A-17L reveal that increasing NAD+ levels rescues age-related mitochondrial and muscle dysfunction through a SIRT1-HIF-1α pathway. FIG. 17A depicts NAD+ levels in gastrocnemius of 3- and 24-month-old mice treated with either the vehicle (PBS) or NMN (n=5, *p<0.05 versus 3-month-old PBS animals, #p<0.05 versus 24-month-old PBS animals). FIG. 17B depicts ATP content in gastrocnemius of 6- and 22-month-old mice treated with either the vehicle (PBS) or NMN (n=6). FIG. 17C depicts expression of mitochondrial-encoded genes (ND1, Cytb, COX1 and ATP6) analyzed by qPCR in gastrocnemius of 6- and 22-month-old mice treated with either the vehicle (PBS) or NMN. Relative expression values were normalized to 6-months old PBS mice (n=6). […] FIG. 17F depicts expression of mitochondrial-encoded genes (ND1, Cytb, COX1 and ATP6) analyzed by qPCR in gastrocnemius of WT and Egln1 KO mice treated with either the vehicle (PBS) or NMN. […] FIG. 17H depicts expression of mitochondrial-enoded genes (ND1, Cytb, COX1 and ATP6) analyzed by qPCR in primary myoblasts WT cells infected with NMNAT1 or nontargeting shRNA treated with either the vehicle (PBS) or NMN. […] FIG. 17I depicts expression of mitochondrial-encoded genes (ND1, Cytb, COX1 and ATP6) analyzed by qPCR in gastrocnemius of WT and SIRT1 KO mice treated with either the vehicle (PBS) or NMN. […] Values are expressed as mean±SEM. […]

SMILES | expression of mitochondrial-encoded genes ([1]; DMOG compared to vehicle control, no SIRT1 overexpression) | HIF-1α protein (immunoblot) ([1]; DMOG versus DMSO (FIG. 21C)) | effect on induction of mitochondrial ETC genes by SIRT1 overexpression ([1]; SIRT1 adenovirus, 1 mM DMOG or 10 μM DFO, 12 hours) | ability of NMN to induce the expression of mitochondrial-encoded genes [2]
COC(=O)CNC(=O)C(=O)OC [DMOG, dimethyloxaloylglycine] | induced a decline | stabilizes HIF-1α protein | completely blocked | –
NC(=O)c1ccc[n+]([C@@H]2O[C@H](COP(=O)([O-])O)[C@@H](O)[C@H]2O)c1 [NMN, nicotinamide mononucleotide] | – | – | – | completely abolishes
